Reference: the supplement of paper PMC10307832

Key:
Assay in all cases: relative viability (nuclei count vs DMSO), 5 days (fraction); higher = more cells survive
[1] = compound: Cc1ccc(-n2nc(C(C)(C)C)cc2NC(=O)Nc2ccc(OCCN3CCOCC3)c3ccccc23)cc1 [Doramapimod] + C[C@]1(O)C[C@@H](c2nc(-c3ccc4ccc(-c5ccccc5)nc4c3)c3c(N)nccn32)C1 [Linsitinib] (partner 1 µM)
Outline: (§1)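 Five library-drug doses in √10 steps were combined with a fixed anchor-drug dose, or a single drug was given alone, by pin tool to lung cancer cell lines in 1536-well plates the day after seeding. Nuclei were stained and counted after 5 days. Relative viability is the nuclei count in treated wells over that in vehicle wells, taken as the median of duplicate plates.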

[2] = compound: Cn1c(Nc2ccc(C(F)(F)F)cc2)nc2cc(Oc3ccnc(-c4ncc(C(F)(F)F)[nH]4)c3)ccc21 [RAF265] + Nc1nc2[nH]cc(CCc3ccc(C(=O)N[C@@H](CCC(=O)O)C(=O)O)cc3)c2c(=O)[nH]1 [Pemetrexed] (partner 0.2 µM)
Outline: as §1

[3] = compound: Cn1c(Nc2ccc(C(F)(F)F)cc2)nc2cc(Oc3ccnc(-c4ncc(C(F)(F)F)[nH]4)c3)ccc21 [RAF265] + COc1cccc2cc(-c3nc([C@H]4CC[C@H](C(=O)O)CC4)n4ncnc(N)c34)[nH]c12 [OSI-027] (partner 0.5 µM)
Outline: as §1

[4] = compound: Cn1c(Nc2ccc(C(F)(F)F)cc2)nc2cc(Oc3ccnc(-c4ncc(C(F)(F)F)[nH]4)c3)ccc21 [RAF265] + NC(=O)Nc1cc(-c2cccc(F)c2)sc1C(=O)N[C@H]1CCCNC1 [AZD7762] (partner 0.2 µM)
Outline: as §1

Row | Cell Line | relative viability ([1]; first compound 0.02 µM) | relative viability ([1]; first compound 0.06325 µM) | relative viability ([1]; first compound 0.2 µM) | relative viability ([1]; first compound 0.6325 µM) | relative viability ([1]; first compound 2 µM) | relative viability ([2]; first compound 0.01 µM) | relative viability ([2]; first compound 0.03162 µM) | relative viability ([2]; first compound 0.1 µM) | relative viability ([2]; first compound 0.3162 µM) | relative viability ([2]; first compound 1 µM) | relative viability ([3]; first compound 0.01 µM) | relative viability ([3]; first compound 0.03162 µM) | relative viability ([3]; first compound 0.1 µM) | relative viability ([3]; first compound 0.3162 µM) | relative viability ([3]; first compound 1 µM) | relative viability ([4]; first compound 0.01 µM) | relative viability ([4]; first compound 0.03162 µM) | relative viability ([4]; first compound 0.1 µM) | relative viability ([4]; first compound 0.3162 µM) | relative viability ([4]; first compound 1 µM)
1 | NCI-H1666 | 0.871 | 0.883 | 0.847 | 0.781 | 0.738 | 0.787 | 0.782 | 0.904 | 0.888 | 0.754 | 0.89 | 0.716 | 0.774 | 0.739 | 0.598 | 0.935 | 0.882 | 0.837 | 0.854 | 0.825
2 | 201T | 1.05 | 1.07 | 0.971 | 1.03 | 0.958 | 0.352 | 0.316 | 0.344 | 0.311 | 0.313 | 0.794 | 0.799 | 0.788 | 0.58 | 0.351 | 0.596 | 0.578 | 0.653 | 0.668 | 0.783
3 | NCI-H1395 | 1.11 | 1.04 | 1.17 | 1.13 | 0.997 | 0.893 | 0.878 | 0.824 | 0.65 | 0.683 | 0.72 | 0.571 | 0.638 | 0.537 | 0.487 | 0.403 | 0.382 | 0.422 | 0.419 | 0.393
4 | LU99A | 0.504 | 0.535 | 0.47 | 0.503 | 0.457 | 0.199 | 0.186 | 0.161 | 0.177 | 0.241 | 0.299 | 0.274 | 0.27 | 0.258 | 0.205 | 0.419 | 0.344 | 0.404 | 0.325 | 0.235
5 | NCI-H1437 | 1.03 | 0.982 | 0.968 | 1.17 | 0.947 | 0.346 | 0.296 | 0.326 | 0.285 | 0.278 | 0.863 | 0.918 | 0.82 | 0.982 | 0.611 | 1.08 | 1.13 | 1.2 | 1.15 | 1.1
6 | EKVX | 1.03 | 0.972 | 0.902 | 1.15 | 0.95 | 0.373 | 0.44 | 0.456 | 0.255 | 0.358 | 0.689 | 0.666 | 0.744 | 0.483 | 0.534 | 0.685 | 0.777 | 0.706 | 0.412 | 0.298
7 | LCLC-97TM1 | 0.181 | 0.169 | 0.161 | 0.191 | 0.17 | 0.145 | 0.155 | 0.149 | 0.153 | 0.128 | 0.516 | 0.328 | 0.215 | 0.416 | 0.0767 | 0.203 | 0.323 | 0.259 | 0.167 | 0.0766
8 | NCI-H1793 | 0.758 | 0.76 | 0.827 | 0.932 | 0.719 | 1.07 | 0.774 | 0.553 | 0.234 | 0.412 | 0.308 | 0.297 | 0.224 |  | 0.188 | 0.413 | 0.572 | 0.332 | 0.197 | 0.132
9 | NCI-H3122 | 1.04 | 1.07 | 1.04 | 0.971 | 0.988 | 0.197 | 0.21 | 0.198 | 0.209 | 0.195 | 0.971 | 1.1 | 0.948 |  | 0.42 | 1.03 | 1.17 | 1.02 | 0.949 | 0.862
10 | PC-14 | 1.01 | 1.03 | 0.981 | 0.931 | 0.9 | 0.115 | 0.138 | 0.144 |  | 0.158 | 0.813 | 0.734 | 0.787 |  | 0.48 | 0.424 | 0.451 | 0.369 |  | 0.378
11 | EPLC-272H | 1.1 | 1.02 | 1.07 | 1.23 | 1.01 | 0.327 | 0.319 | 0.406 | 0.213 | 0.177 | 0.251 | 0.288 | 0.237 | 0.218 | 0.184 | 0.213 | 0.181 | 0.223 | 0.161 | 0.15
12 | A-427 | 1.17 | 1.21 | 1.24 |  | 1.16 | 1.06 | 0.939 | 1.03 | 0.678 | 0.468 | 0.4 | 0.334 | 0.312 | 0.18 | 0.129 | 0.798 | 0.746 | 0.641 | 0.448 | 0.247
